Measured values as given in patent publication US9186361B2, “Compounds and compositions for the treatment of parasitic diseases” (Novartis AG, priority 2013, dated 2015).

Experiments:
Format in all cases: cell-based
[1] = tested on: L. donovani HU3 strain in mouse peritoneal macrophages; assay: Proliferation of L. donovani in mouse peritoneal macrophages (SybrGreen, high-content imaging); settings: Leishmania donovani, Peritoneal macrophage, 120 h; infected mouse peritoneal macrophages, 5 days; read-out: L. donavani Macrophage EC50
Source text: The activity of a compound according to the present invention for inhibition of parasitemai can be assessed by the parasite proliferation assay. The assay measures the increase in the parasite number in the assayed plate well using a DNA intercalating dye, SYBR Green I® dye (INVITROGEN) to stain Leishmania cell nuclei. It is understood that the assays illustrate the invention without in any way limiting the scope of the invention.
L. donovani HU3 strain is propagated by infecting BALBc mice through tail vein injection with 10^7 Leishmania parasites. Infected mice are allowed to develop infection during 9-11 weeks post-infection. During this time, the parasites accumulate in the infected mouse spleens to large numbers, and the infected mice serve as the source of parasites for the in vitro measurement of compound efficacies. To assay a compound for anti-leishmanial activity, peritoneal macrophages isolated from non-infected BALBc mice are seeded into 384-well plates at density 2×10^4 macrophages per well in 25 mL of medium (RPMI1640, 10% fetal serum albumin, 10 mM HEPES, 1 mM sodium pyruvate, 1% Pen/Strep). Subsequently, the seeded plates are placed into an incubator set to maintain 37° C. temperature and atmosphere with 5% CO2. The next day, Leishmania parasites are isolated from the spleens of mice infected for 9-11 weeks and 4×10^5 isolated parasites in […] of the above media are added to each plate well. Plates are then returned into incubators and infection is allowed to proceed for 24 hours. After the infection of macrophages is completed, […] of compounds of the invention in the above medium, which also contains 5% DMSO, are added to plate wells containing infected macrophages. At the same time control compounds (miltefosine and amphotericin B) and DMSO are added to plates to serve as the positive and negative controls, respectively. After the compound addition, the plates are returned into incubator and cells infected with parasites are cultured for 5 days. At the end of cultivation, […] of 8% paraformaldehyde is added to plate wells and incubated for 15 min at room temperature. Following the incubation, the paraformaldehyde from plate wells is aspirated, and […] of PBS containing 0.2% Triton X-100 is added to wells. After 15 min incubation, the solution is aspirated from wells again, and replaced with SybrGreen Dye solution in PBS (1:125,000 dilution). Infected cells are imaged with Evotec Opera high-content microscope, and the number of parasites in well is determined by counting parasite nuclei visualized by staining with SybrGreen dye. The percentage inhibition of 50%, EC50, is calculated for each compound.
The inhibitory efficacy of the compounds of the invention against proliferation of L. donovani in mouse peritoneal macrophages is provided in Table I.

[2] = tested on: Trypanosoma cruzi amastigotes cultured in 3T3 fibroblast cells; assay: Assay for proliferation of kinetoplastid parasite Trypanosoma cruzi (beta-galactosidase/CPRG readout); settings: NIH3T3, 144 h, Tulahuen strain in 3T3 cells, 6 day incubation, read-out: T cruzi EC50
Source text: Compounds of the invention can be assayed to measure their capacity to inhibit proliferation of kinetoplastid parasite Trypanosoma cruzi. The screening procedure is for identifying compounds with inhibitor activity against Trypanosoma cruzi amastigotes cultured in 3T3 fibroblast cells. The assay is done using the mammalian stage (amastigotes) of T. cruzi that replicates in the intracellular space of host cells. The host cells are initially infected with the culture-derived trypomastigotes that rapidly invade and then divide as amastigotes. The protocol uses the Tulahuen strain of T. cruzi that has been engineered to express the E. coli beta-galactosidase gene (Lac-Z) (Antimicr. Agents Chemoth. 40:2592, 1996). This allows for a colorimetric readout by using the substrate CPRG and an absorbance plate reader.
3T3 fibroblast cells are re-suspended in RPMI-1640 medium without phenol red medium supplemented with 10% FBS (heat inactivated), 100 μg/ml penicillin, and 100 μg/ml streptomycin. Forty μL of suspension (1,000 cells) is dispensed into 384-well plates and incubated overnight at 37° C. temperature and in atmosphere containing 5% CO2. The following day, 100 nL of compounds of the invention in DMSO are added to plate wells containing 3T3 cells. At the same time control compounds (benznidazole and nifurtimox) and DMSO are added to plates to serve as the positive and negative controls, respectively. After that, 10 μL of media containing 10,000 T. cruzi trypomastigotes are added to each plate well and plates are placed back into incubators. After 6 day incubation, 10 μL of reagent solution (0.6 mM CPRG, 0.6% NP-40 in PBS) is added to plates and incubated at room temperature for 2 hours. Absorbance is then measured on SpectraMax Gemini fluorimeter to determine relative number of T. cruzi cells present in each plate well. The percentage inhibition of 50%, EC50, is calculated for each compound.

[3] = tested on: Leishmania donovani axenic amastigote parasites; assay: Assay for Leishmania proliferation in vitro (axenic amastigotes, Cell TiterGlo); settings: 48 h, 2 day incubation, read-out: L. donovani amastigotes EC50
Description: Leishmania donovani axenic amastigote parasites are grown at 37° C., 5% CO2 in media made of RPMI 1640, 4 mM L-glutamine, 20% heat inactivated FBS, 100 units/ml of penicillin and 100 μg/ml of streptomycin, 23 μM Folic Acid, 100 μM Adenosine, 22 mM D-glucose, 25 mM MES. The pH of media is adjusted to 5.5 at 37° C. using HCl. 20 μL of media is first dispensed into 384 well plates and […] of the compounds of invention in DMSO are added to the plate wells. At the same time control compounds and DMSO are added to plates to serve as the positive and negative controls, respectively. 40 μL of parasite culture (9600 parasites) are then added to the plate wells. The plates are then placed into incubators. After 2 day incubation, 20 μL of Cell TiterGlo (Promega) is added to the plate wells. The luminescence signal of each well is measured using the Envision reader (Perkin Elmer). The percentage inhibition of 50%, EC50, is calculated for each of the compounds.

Row | SMILES | EC50 [1] [µM] | EC50 [2] [µM] | EC50 [3] [µM]
1 | Cc1nc(C)c(C(=O)Nc2cnc3nc(-c4cc(NC(=O)c5ccco5)ccc4Cl)[nH]c3c2)s1 [Example 5, N-{2-[2-chloro-5-(furan-2-amido)phenyl]-1H-imidazo[4,5-b]pyridin-6-yl}-2,4-dimethyl-1,3-thiazole-5-carboxamide] | > 50 | 1.86 | 0.57
2 | CC(C)OC(=O)Nc1cnc2nc(-c3cc(NC(=O)c4ccco4)ccc3Cl)n(C(=O)OC(C)C)c2c1 [Example 7, propan-2-yl 2-[2-chloro-5-(furan-2-amido)phenyl]-6-{[(propan-2-yloxy)carbonyl]amino}-1H-imidazo[4,5-b]pyridine-1-carboxylate] | 1.35 | 0.147 | 0.64
3 | O=C(Nc1ccc(Cl)c(-c2nc3ncc([N+](=O)[O-])cc3[nH]2)c1)c1ccco1 [Example 8, N-(4-chloro-3-{6-nitro-1H-imidazo[4,5-b]pyridin-2-yl}phenyl)furan-2-carboxamide] | 12.4 | 1.02 | 0.96
4 | CC(C)C(=O)Nc1cnc2nc(-c3cc(NC(=O)c4ccco4)ccc3Cl)[nH]c2c1 [Example 10, N-{4-chloro-3-[6-(2-methylpropanamido)-1H-imidazo[4,5-b]pyridin-2-yl]phenyl}furan-2-carboxamide] | 2.29 | 3.7 | 1.17
5 | CNc1cnc2nc(-c3cc(NC(=O)c4ccco4)ccc3Cl)[nH]c2c1 [Example 11, N-{4-chloro-3-[6-(methylamino)-1H-imidazo[4,5-b]pyridin-2-yl]phenyl}furan-2-carboxamide] | 16.6 | 1.27 | 1.84
6 | O=C(Nc1ccc(Cl)c(-c2nc3ncc(NC(=O)N4CCCC4)cc3[nH]2)c1)c1ccco1 [Example 12, N-{2-[2-chloro-5-(furan-2-amido)phenyl]-1H-imidazo[4,5-b]pyridin-6-yl}pyrrolidine-1-carboxamide] | > 26.1 | 11 | 2.34
7 | CC(C)CC(=O)Nc1cnc2nc(-c3cc(NC(=O)c4ccco4)ccc3Cl)[nH]c2c1 [Example 14, N-{4-chloro-3-[6-(3-methylbutanamido)-1H-imidazo[4,5-b]pyridin-2-yl]phenyl}furan-2-carboxamide] | 3.3 | 3.3 | 4.5
8 | CC(C)(C)OC(=O)NCCOC(=O)Nc1cnc2nc(-c3cc(NC(=O)c4ccco4)ccc3Cl)[nH]c2c1 [Example 16, tert-butyl N-{2-[({2-[2-chloro-5-(furan-2-amido)phenyl]-1H-imidazo[4,5-b]pyridin-6-yl}carbamoyl)oxy]ethyl}carbamate] | 10.1 | 4 | 5.7
9 | COCCC(=O)Nc1cnc2nc(-c3cc(NC(=O)c4ccco4)ccc3Cl)[nH]c2c1 [Example 19, N-{4-chloro-3-[6-(3-methoxypropanamido)-1H-imidazo[4,5-b]pyridin-2-yl]phenyl}furan-2-carboxamide] | 25.5 | > 20 | 13.3
10 | CC(C)NC(=O)Nc1cnc2nc(-c3cc(NC(=O)c4ccco4)ccc3Cl)[nH]c2c1 [Example 24, N-[4-chloro-3-(6-{[(propan-2-yl)carbamoyl]amino}-1H-imidazo[4,5-b]pyridin-2-yl)phenyl]furan-2-carboxamide] | > 39.2 | > 20 | 23.2
11 | O=C(CCO)Nc1cnc2nc(-c3cc(NC(=O)c4ccco4)ccc3Cl)[nH]c2c1 [Example 25, N-{4-chloro-3-[6-(3-hydroxypropanamido)-1H-imidazo[4,5-b]pyridin-2-yl]phenyl}furan-2-carboxamide] | > 50 | > 20 | 23.2
12 | O=C(Nc1ccc(Cl)c(-c2nc3ncc(NCc4cccnc4O)cc3[nH]2)c1)c1ccco1 [Example 30] | > 50 | > 20 | > 25
13 | NCC(=O)Nc1cnc2nc(-c3cc(NC(=O)c4ccco4)ccc3Cl)[nH]c2c1 [Example 33, N-{3-[6-(2-aminoacetamido)-1H-imidazo[4,5-b]pyridin-2-yl]-4-chlorophenyl}furan-2-carboxamide] | > 50 | 19.1 | > 25
14 | CN1CCC(C(=O)Nc2cnc3nc(-c4cc(NC(=O)c5ccco5)ccc4Cl)[nH]c3c2)CC1 [Example 36, N-{2-[2-chloro-5-(furan-2-amido)phenyl]-1H-imidazo[4,5-b]pyridin-6-yl}-1-methylpiperidine-4-carboxamide] | > 50 | 19 | > 25
15 | O=C(Nc1ccc(Cl)c(-c2nc3ncc(NC(=O)C4CC(F)C4)cc3[nH]2)c1)c1ccco1 (stereo not drawn) [Example 38, N-(4-chloro-3-{6-[(3-fluorocyclobutane)amido]-1H-imidazo[4,5-b]pyridin-2-yl}phenyl)furan-2-carboxamide] | 3.7 | 4.4 | 2.13
16 | COc1ccc(C(=O)Nc2ccc(Cl)c(-c3nc4ncc(NC(=O)OC(C)C)cc4[nH]3)c2)o1 [Example 39, propan-2-yl N-{2-[2-chloro-5-(5-methoxyfuran-2-amido)phenyl]-1H-imidazo[4,5-b]pyridin-6-yl}carbamate] | 17.7 | 6.7 | 13.8
17 | CC1(C(=O)Nc2cnc3nc(-c4cc(NC(=O)c5ccco5)ccc4Cl)[nH]c3c2)COC1 [Example 43, N-{4-chloro-3-[6-(3-methyloxetane-3-amido)-1H-imidazo[4,5-b]pyridin-2-yl]phenyl}furan-2-carboxamide] | 47.4 | > 20 | > 25
18 | O=C(Nc1ccc(Cl)c(-c2nc3ncc(NC(=O)C4CCNCC4)cc3[nH]2)c1)c1ccco1 [Example 46, N-{2-[2-chloro-5-(furan-2-amido)phenyl]-1H-imidazo[4,5-b]pyridin-6-yl}piperidine-4-carboxamide] | > 50 | > 20 | > 25
19 | CNS(=O)(=O)Nc1cnc2nc(-c3cc(NC(=O)c4ccco4)ccc3Cl)[nH]c2c1 [Example 52, N-(4-chloro-3-{6-[(methylsulfamoyl)amino]-1H-imidazo[4,5-b]pyridin-2-yl}phenyl)furan-2-carboxamide] | 28.9 | > 20 | > 25
